Where two headings read alike, the source gives them in different places.
Legend:
[1] = molecular target: topoisomerase II isolated from Giardia lamblia; assay: Topoisomerase II inhibition (Giardia lamblia enzyme); type: biochemical; details: 50% inhibition of topoisomerase II isolated from Giardia lamblia; read-out: IC50 Topoisomerase Activity II G.l.
Giardia lamblia = assay: Inhibition of growth of Giardia lamblia in in vitro culture; type: cell-based; details: read-out: IC50 Giardia lamblia
[2] = molecular target: T1, topoisomerase II isolated from Drosophila melanogaster (Drosophila melanogaster, UniProt P15348); assay: Topoisomerase II inhibition (Drosophila melanogaster enzyme); type: biochemical
T1 construct: topoisomerase II isolated from Drosophila melanogaster; from tissue
T1 sequence (P15348 1-1447): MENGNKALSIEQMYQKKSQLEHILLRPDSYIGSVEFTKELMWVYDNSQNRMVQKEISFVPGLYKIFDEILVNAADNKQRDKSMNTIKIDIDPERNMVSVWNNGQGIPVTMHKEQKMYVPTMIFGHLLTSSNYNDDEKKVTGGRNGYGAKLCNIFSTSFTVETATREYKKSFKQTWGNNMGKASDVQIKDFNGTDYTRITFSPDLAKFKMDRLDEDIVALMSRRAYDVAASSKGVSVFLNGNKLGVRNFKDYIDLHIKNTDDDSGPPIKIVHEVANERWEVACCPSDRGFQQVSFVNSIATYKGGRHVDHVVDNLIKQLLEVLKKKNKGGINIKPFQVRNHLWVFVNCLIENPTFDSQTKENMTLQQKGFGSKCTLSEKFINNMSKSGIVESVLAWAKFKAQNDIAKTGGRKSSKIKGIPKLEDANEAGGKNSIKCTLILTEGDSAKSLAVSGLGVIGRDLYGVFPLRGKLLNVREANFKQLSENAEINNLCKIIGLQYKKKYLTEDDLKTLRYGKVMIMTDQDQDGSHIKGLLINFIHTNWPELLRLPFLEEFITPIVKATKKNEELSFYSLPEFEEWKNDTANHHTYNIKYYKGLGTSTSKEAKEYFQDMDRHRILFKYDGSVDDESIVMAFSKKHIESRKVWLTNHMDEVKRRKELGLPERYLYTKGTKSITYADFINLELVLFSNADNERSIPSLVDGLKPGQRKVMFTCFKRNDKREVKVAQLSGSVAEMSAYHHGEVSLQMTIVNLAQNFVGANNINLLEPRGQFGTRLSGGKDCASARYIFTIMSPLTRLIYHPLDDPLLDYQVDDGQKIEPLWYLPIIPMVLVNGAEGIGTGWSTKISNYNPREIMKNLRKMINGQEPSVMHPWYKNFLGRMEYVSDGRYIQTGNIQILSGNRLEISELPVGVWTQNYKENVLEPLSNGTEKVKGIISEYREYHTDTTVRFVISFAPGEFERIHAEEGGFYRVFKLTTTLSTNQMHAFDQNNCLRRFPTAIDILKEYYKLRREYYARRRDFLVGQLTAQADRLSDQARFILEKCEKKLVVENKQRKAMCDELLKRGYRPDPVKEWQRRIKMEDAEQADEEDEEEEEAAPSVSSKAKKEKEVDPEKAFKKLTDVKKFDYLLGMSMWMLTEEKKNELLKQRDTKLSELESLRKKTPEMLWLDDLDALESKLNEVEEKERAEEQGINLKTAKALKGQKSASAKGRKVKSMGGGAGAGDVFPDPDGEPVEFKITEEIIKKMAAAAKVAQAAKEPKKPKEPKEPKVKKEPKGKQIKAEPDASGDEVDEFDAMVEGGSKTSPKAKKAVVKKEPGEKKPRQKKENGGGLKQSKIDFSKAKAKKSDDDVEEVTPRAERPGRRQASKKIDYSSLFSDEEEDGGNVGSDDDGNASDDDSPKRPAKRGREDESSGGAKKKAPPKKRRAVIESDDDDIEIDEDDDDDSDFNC

Pneumocystis carinii = assay: In vivo activity against Pneumocystis carinii (lung cyst counts and toxicity); details: for Toxicity: toxicity scale, larger value = more severe, values greater than 2 indicate deaths of some animals
poly A poly T = assay: DNA thermal melting (increase in Tm of poly A poly T); type: binding; details: MES buffer pH 6.0, 0.1 M NaCl, ratio of 0.3 moles of compound to nucleic acid bases
Protocol: (§1) Thermal melting curves for DNA and its complexes with compounds from Examples 4, 6, and 7-9 are determined as previously described in F.A. Tanious, et al., J.Biomol. Structure & Dynamics 11:1063 (1994) and W.D. Wilson, et al., Biochemistry 32:4098 (1993), by following the adsorption change at 260 nm as a function of temperature. Tm values were determined from first derivative plots. Compounds are compared by the increase in Tm (ΔTm=Tm of complex - Tm of the free nucleic acid) they produce in MES buffer (0.01M 2-(N-morpholino) ethanesulfonic acid, 0.001 M EDTA, 0.1 M NaCl adjusted to pH 6.0) at saturating amounts of compound (a ratio of 0.3 moles of compound to nucleic acid bases) unless otherwise indicated.

[3] = system: oligomer d(GCGCAATTGCGC)2; assay: DNA thermal melting (increase in Tm of oligomer); type: binding; details: increase in thermal melting of the oligomer d(GCGCAATTGCGC)2; MES buffer pH 6.0
Protocol: as §1

[4] = molecular target: topoisomerase I isolated from Pneumocystis carinii; assay: Topoisomerase I inhibition (Pneumocystis carinii enzyme); type: biochemical; details: 50% inhibition of topoisomerase I isolated from Pneumocystis carinii
[5] = 50% inhibition of growth of Giardia lamblia in in vitro culture
[6] = 50% inhibition of topoisomerase II isolated from Drosophila melanogaster, read-out: IC50 Topoisomerase Activity II D.m.
[7] = Pneumocystis carinii, iv, read-out: cyst/g lung (% of control)

| Molecule | IC50 [1] [nM] | IC50 (Giardia lamblia; Giardia duodenalis) [nM] | IC50 [2] [µM] | ΔTm DNA (poly A poly T) [°C] | other results |
| --- | --- | --- | --- | --- | --- |
| 2,5-bis[2-(imidazolinyl)phenyl]-3,4-bis(methoxymethyl)furan [Compound 18] | 800 to 1000 |  |  |  | IC50 (Giardia lamblia; [5]): 4420 nM; IC50 [2, 6]: 12.5 µM |
| c1cc(-c2ccc(-c3ccc(C4=NCCN4)cc3)o2)ccc1C1=NCCN1 [Compound 2, 2,5-bis[4-(2-imidazolinyl)phenyl]furan] |  | 800 | 8 |  | response vs control in vivo at 23.3 µM (Pneumocystis carinii; [7]): 35.4%; Toxicity (Pneumocystis carinii; dosage 23.3 µM/kg/day intravenous): +2 |
| c1cc(-c2ccc(-c3ccc(C4=NCCCCN4)cc3)o2)ccc1C1=NCCCCN1 [Compound 4, 2,5-bis[4-(4,5,6,7-tetrahydro-1H-1,3-diazepin-2-yl)phenyl]furan] | 1500 | 1100 | 25 to 50 | > 28 | response vs control in vivo at 0.18 µM (Pneumocystis carinii; [7]): 115%; response vs control in vivo at 2.3 µM (Pneumocystis carinii; [7]): 2.9%; Toxicity (Pneumocystis carinii; dosage 0.18 µM/kg/day intravenous): 0; Toxicity (Pneumocystis carinii; dosage 2.3 µM/kg/day intravenous): +3; ΔTm Oligomer [3]: 10.7 °C |
| c1cc(-c2ccc(-c3ccc(C4=NC5CCCCC5N4)cc3)o2)ccc1C1=NC2CCCCC2N1 (stereo not shown) [Compound 5, 2,5-bis[4-(3a,4,5,6,7,7a-hexahydro-1H-benzimidazol-2-yl)phenyl]furan] | 3000 to 6000 | 1700 | 50 | 24.5 | response vs control in vivo at 9.2 µM (Pneumocystis carinii; [7]): 80.5%; Toxicity (Pneumocystis carinii; dosage 9.2 µM/kg/day intravenous): +1; ΔTm Oligomer [3]: 5.6 °C |
| OCCN1CCN=C1c1ccc(-c2ccc(-c3ccc(C4=NCCN4CCO)cc3)o2)cc1 [Compound 6, 2,5-bis{4[2-(N-2-hydroxyethyl)imidazolinyl]-phenyl}furan] | 20000 | 5300 | 200 | 12.2 | response vs control in vivo at 4.8 µM (Pneumocystis carinii; [7]): 107%; Toxicity (Pneumocystis carinii; dosage 4.8 µM/kg/day intravenous): +3; ΔTm Oligomer [3]: 1 °C |
| CCN1CCN=C1c1ccc(-c2ccc(-c3ccc(C4=NCCN4CC)cc3)o2)cc1 [Compound 7, 2,5-bis-{4-[2-(N-ethylimidazolinyl)]phenyl}furan] | 25000 |  |  | 11.8 |  |
| Cc1c(-c2ccc(C(=N)N)cc2)oc(-c2ccc(C(=N)N)cc2)c1C [Compound 8, 2,5-bis(4-amidinophenyl)-3,4-dimethyl furan] | 750 | 260 | 2.4 |  | Toxicity (Pneumocystis carinii; dosage 24.7 µM/kg/day intravenous): +1; IC50 [4]: < 3.12 µM |
| Cc1ccc(Oc2cc(-c3ccc(C4=NCCN4)cc3)oc2-c2ccc(C3=NCCN3)cc2)cc1 [Compound 9, 2,5-[bis{4-(2-imidazolinyl)}phenyl]3-p-tolyloxy furan] | 2000 to 4000 | > 100000 | 25 | 18.1 | Toxicity (Pneumocystis carinii; dosage 9.3 µM/kg/day intravenous): +2; IC50 [4]: 12.5 µM |
| Cc1ccc(Oc2cc(-c3ccc(C4=NCCCN4)cc3)oc2-c2ccc(C3=NCCCN3)cc2)cc1 [Compound 10] | 1000 to 3000 | 3300 | 50 to 100 | > 28 | Toxicity (Pneumocystis carinii; dosage 1.8 µM/kg/day intravenous): +3 |
| NCCNC(=O)c1ccc2[nH]c(-c3ccc(-c4ccc(-c5ccc(-c6nc7cc(C(=O)NCCN)ccc7[nH]6)cc5)o4)cc3)nc2c1 [Compound 11, 2,5-bis{4-[5-(N-2-aminoethylamido)benzimidazol-2-yl]phenyl}furan] | 5000 | 620 | > 300 |  | Toxicity (Pneumocystis carinii; dosage 4.1 µM/kg/day intravenous): +4 |
| CN(C)NC(=O)c1ccc(-c2ccc(-c3ccc(C(=O)NN(C)C)cc3)o2)cc1 [Compound 12, 2,5-bis(4-N,N-dimethylcarboxhydrazidephenyl) furan] | 600 to 1200 |  |  |  | cyst/g lung (% of control) (Pneumocystis carinii; dosage 7.78 µM/kg/day intravenous, percentage of saline-treated controls): 20.7 % of control; Toxicity (Pneumocystis carinii; dosage 7.78 µM/kg/day intravenous): +3; IC50 (Giardia lamblia; [5]): 350 nM; IC50 [2, 6]: 30 to 60 µM |
| CN(C)CCCNC(=N)c1ccc(-c2ccc(-c3ccc(C(=N)NCCCN(C)C)cc3)o2)cc1 [Compound 14, 2,5-bis{4-[3-(dimethylaminopropyl)amidino]phenyl}furan] | 250 | 8980 | > 6.2 | > 28 | Toxicity (Pneumocystis carinii; dosage 3.9 µM/kg/day intravenous): +3 |
| N=C(NC1CC1)c1ccc(-c2ccc(-c3ccc(C(=N)NC4CC4)cc3)o2)cc1 [Compound 15, 2,5-bis-[4-N-(cyclopropylamidino)phenyl]furan] | 1250 | 630 |  | > 28 |  |
| N=C(NCCO)c1ccc(-c2ccc(-c3ccc(C(=N)NCCO)cc3)o2)cc1 [Compound 16, 2,5-bis-{4-[(N-2-hydroxyethyl)amidino]phenyl}furan] | 1200 to 2500 | 780 | 25 to 50 | 21.1 | Toxicity (Pneumocystis carinii; dosage 10.4 µM/kg/day intravenous): 0 |
| CN(C)CCNC(=N)c1ccc(-c2ccc(-c3ccc(C(=N)NCCN(C)C)cc3)o2)cc1 [Compound 17, 2,5-bis[4-N-(dimethylaminoethyl)amidino]phenyl furan] | 800 | 10800 | 12.5 |  |  |
| N=C(NCCCN)c1ccc(-c2ccc(-c3ccc(C(=N)NCCCN)cc3)o2)cc1 [Compound 19, 2,5-bis-{4-[N-(3-aminopropyl)amidino]phenyl}furan] | 625 | 59 | 25 |  |  |
| Cc1cc(-c2ccc(C(=N)NC(C)C)cc2)oc1-c1ccc(C(=N)NC(C)C)cc1 [Compound 20, 2,5-bis[4-(N-isopropylamidino)phenyl]-3-methylfuran] | 1000 to 2000 | 4400 | 3 |  | IC50 [4]: 50 to 100 µM |
| N=C(N)c1ccc(OCCCCCOc2ccc(C(=N)N)cc2)cc1 [Pentamidine, reference compound] |  |  |  |  | response vs control in vivo at 22.1 µM (Pneumocystis carinii; [7]): 3.66%; Toxicity (Pneumocystis carinii; dosage 22.1 µM/kg/day intravenous): +2 |
